The results in this text go back to patent publication US20120230914A1, “LABELING COMPOUND FOR PET” (RIKEN, priority 2009, published 2012).

The structures appear in SMILES notation.

The target in series [1] is T1, aromatase (Macaca mulatta, UniProt A0A1D5QZ23).
T1 sequence (A0A1D5QZ23 1-503): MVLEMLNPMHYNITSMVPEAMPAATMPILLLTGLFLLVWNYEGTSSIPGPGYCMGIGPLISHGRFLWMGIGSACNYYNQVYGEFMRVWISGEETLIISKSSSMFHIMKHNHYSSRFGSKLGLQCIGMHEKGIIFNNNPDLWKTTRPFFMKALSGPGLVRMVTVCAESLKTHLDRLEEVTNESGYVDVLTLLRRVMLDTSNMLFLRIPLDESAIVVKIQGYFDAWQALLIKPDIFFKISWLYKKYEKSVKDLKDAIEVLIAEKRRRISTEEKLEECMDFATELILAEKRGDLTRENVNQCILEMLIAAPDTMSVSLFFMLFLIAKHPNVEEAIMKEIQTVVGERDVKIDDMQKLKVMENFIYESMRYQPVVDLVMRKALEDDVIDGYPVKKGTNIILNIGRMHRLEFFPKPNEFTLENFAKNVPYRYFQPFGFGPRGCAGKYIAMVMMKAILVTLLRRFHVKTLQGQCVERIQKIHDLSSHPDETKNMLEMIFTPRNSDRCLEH
As to the kind of experiment: PET measurement (binding potential images and SUV in brain regions). The conditions noted are these: for binding potential (difference among the compounds): Rhesus macaques, relative to Compounds (10), (22), (33), (39); for specific binding in amygdala (binding potential images): male Rhesus macaques, i.v. 33 MBq/kg, 90 min scan, cerebellum as reference region.
Method: (§1) (i) Male Rhesus macaques were subjected to PET measurement. Specifically, Rhesus macaques were put under sedation with ketalar (10 mg/kg), and intravenous catheters for RI administration were attached to their legs. Thereafter, the Rhesus macaques were anesthetized using propofol (10 mg/kg/h), and were immobilized in a PET scanner.
(§2) After reconstructing images, binding potential (BP) images with cerebellum as a reference region were constructed. The binding potential used herein indicates a value obtained by dividing an association rate constant by a dissociation rate constant.
(§3) SUV is a value obtained by dividing radioactivity density per 1 ml of tissue by radioactivity density per 1 g of body weight, i.e. SUV=radioactivity density per 1 ml of tissue/radioactivity density per 1 g of body weight.

Series [2] concerns aromatase. The series is described as above. The following applies: for temporal change in SUV (standardized uptake value) in the latter part of scanning: Rhesus macaques, cerebellum, amygdala, hypothalamus, nucleus accumbens.
Method: as §1, §2, §3
The target of series [3] is T1, aromatase. As to the kind of experiment: Replacement test with non-radiolabeled vorozole (PET binding potential). The class given is in vivo. On the set-up: allows quantifying aromatase in the brain with higher accuracy; from tissue; host or cells: brain of living male Rhesus macaques (amygdala, hypothalamus, nucleus accumbens). The conditions noted are these: Rhesus macaques; after non-radiolabeled VOR 100 μg/kg; compared with VOR. As for the experimental part: 5 min before administration of the Compound (10), non-radiolabeled vorozole (VOR) (100 μg/kg) was administered, and binding potential (BP) of Rhesus macaques were observed.

The target in series [4] is T2, aromatase (Rattus norvegicus, UniProt P22443).
T2 construct: from tissue; host or cells: rat ovary homogenate (female rats)
T2 sequence (P22443 1-508): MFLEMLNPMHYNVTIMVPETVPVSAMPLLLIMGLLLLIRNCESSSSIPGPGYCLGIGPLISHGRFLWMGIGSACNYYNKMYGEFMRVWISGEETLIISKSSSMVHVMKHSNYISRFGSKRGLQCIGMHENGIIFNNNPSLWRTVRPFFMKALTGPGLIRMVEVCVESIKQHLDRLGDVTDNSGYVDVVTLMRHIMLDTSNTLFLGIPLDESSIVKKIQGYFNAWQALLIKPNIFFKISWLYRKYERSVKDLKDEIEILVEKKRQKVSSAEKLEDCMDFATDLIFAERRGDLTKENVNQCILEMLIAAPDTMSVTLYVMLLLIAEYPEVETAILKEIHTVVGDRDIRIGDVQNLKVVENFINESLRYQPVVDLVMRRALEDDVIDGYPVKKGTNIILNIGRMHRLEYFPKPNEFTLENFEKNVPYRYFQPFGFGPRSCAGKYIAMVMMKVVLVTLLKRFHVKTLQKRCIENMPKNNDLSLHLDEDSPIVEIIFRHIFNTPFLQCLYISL
Briefly: In vitro binding test (ligand saturation, Scatchard plot analysis). On the set-up: species or system rats. The method, then:
Specifically, female rats were anesthetized with diethyl ether, and 0.01 M phosphate buffered saline (PBS, pH 7.4) was perfused via hearts. Ovaries of the rats were removed immediately and homogenized in 1 mL of a 0.32 M sucrose solution.
After filtration, counting was performed by a γ counter, and the average of KD was calculated by Scatchard plot analysis.

Series [5] can be described thus: Reuptake of labeled metabolite: HPLC of blood and brain extracts after tail vein injection. The class given is in vivo. The following applies: male rats, brain sampled 5, 10 and 20 min after injection. As for the experimental part: 5, 10 and 20 min after the injection, bloods were sampled from aorta adbominalis and then the brains were taken out and homogenized. Acetonitrile was added to the bloods and homogenated brains and the resultants were subjected to centrifugation, and extracts were subjected to HPLC in order to measure labeled metabolites.
Data for “Monkey” shown in FIG. 8 was obtained by sampling vein blood along with PET imaging, centrifuging the sampled vein blood, adding acetonitrile to the blood plasma and centrifuging the blood plasma, and subjecting the extract to HPLC to measure parent compound in the blood plasma.

Consider `[11CH3]c1ccc(CN(c2ccc(C#N)cc2)n2cncn2)cc1` [Compound (39), 4-{(4-[^11C]Methylbenzyl)(1H-1,2,4-triazol-1-yl)amino}benzonitrile], for which, on aromatase [1], the “binding potential (difference among the compounds)” value is given as “relatively high binding potential” and the “specific binding in amygdala (binding potential images)” value (shortened to “specific binding in amygdala”) is given as “specific binding was observed in amygdala”. Further, the “temporal change in SUV (standardized uptake value) in the latter part of scanning” value (“temporal change in SUV” below) with aromatase [2] is reported as “decreases as time passes”.

Turning to `[11CH3]c1ccc(CN(c2ccc(C#N)cc2)n2cnnc2)cc1` [Compound (10), 4-{(4-[^11C]Methylbenzyl)(4H-1,2,4-triazol-4-yl)amino}benzonitrile], the “specific binding in amygdala” value at aromatase [1] is recorded as “specific binding was observed in amygdala”. For the same molecule, the “temporal change in SUV” value with aromatase [2] is “decreases as time passes”. The “nonspecific binding of the labeled compound to cerebral cortex etc.” value with aromatase [2] (male Rhesus macaques, compared to conventional [11C]vorozole) is given as “decreased”. The “amount of replaced binding (considered nonspecific binding)” value on aromatase [3] is listed as “smaller amount of replaced binding than the case of VOR”. In addition, the “affinity relative to VOR” value on aromatase [4] (from KD values) is reported as “approximately twice higher affinity than VOR”. On aromatase [4] (homogenized rat ovaries, room temperature, 30 min, nonspecific binding with 1 μM non-radiolabeled VOR, read-out: dissociation constant (KD)), the Kd was 0.3 nM. Also, the “reuptake of labeled metabolite into the brain” value in series [5] is “such reuptake was not observed”.

Turning to `[11CH3]c1cccc(CN(c2ccc(C#N)cc2)n2cnnc2)c1` [Compound (22), 4-{(3-[^11C]Methylbenzyl)(4H-1,2,4-triazol-4-yl)amino}benzonitrile], on aromatase [1], the “binding potential (difference among the compounds)” value is reported as “relatively low binding potential” and the “specific binding in amygdala” value is recorded as “specific binding was observed in amygdala”. Moreover, the “temporal change in SUV” value in the series on aromatase [2] is “decreases as time passes”.

For `[11CH3]c1ccc(CN(c2ccc([N+](=O)[O-])cc2)n2cnnc2)cc1` [Compound (33), 4-{(4-[^11C]Methylbenzyl)(4H-1,2,4-triazol-4-yl)amino}nitrobenzene], the “specific binding in amygdala” value on aromatase [1] is listed as “specific binding was observed in amygdala”. In the series on aromatase [2], the “temporal change in SUV” value was “decreases as time passes”.
